{"source": "patent US12421489B2", "about": "“Biological control of plant pathogenic microorganisms” (priority 2016, dated 2025)", "key": {"Penicillium spp.": {"system": "Penicillium spp.", "experiment": "Assay 8: wound protection of ‘Hongyang’ kiwifruit, Penicillium spp.", "type": "in vivo", "conditions": "wounded ‘Hongyang’ kiwifruit, treatment 24 h before Penicillium, 6 days incubation", "procedure": "(§1) The kiwifruit ‘Hongyang’-based screening assays (assays 8 and 9) were conducted in laboratories at the Plant and Food Research Ruakura Research Centre, Hamilton, New Zealand (PFR). PFR assays focused on wound application of YBCA5 treatment, a commercial biological control treatment and a fungicide were used as comparative controls.\nThe ‘Hongyang’ kiwifruit were sourced from the PFR Riwaka Research Orchard in Motueka on 12 Apr. 2017 for fruit based assays 8 and 9. Penicillium spp. Phomopsis spp., Alternaria spp., Colletotrichum spp., Cryptosporiopsis spp. and Botrytis spp. inoculation assays were carried out on ‘Hongyang’ kiwifruit that were picked at the harvest mature stage. […]\n(§2) For assays 8 and 9, two sterile paper towels were placed beneath Plix cut-outs, moistened with 40 mL SDW and each fruit placed in disposable lunch boxes (Plix Extra Deep 45/45, containing five Plix fruit cut-outs to prevent fruit from moving), sealed, then placed into large (40 L) plastic bins which were closed to ensure high relative humidity for the first 24 h and incubated on the lab bench at 24° C. […] After 6 days, (Alternaria spp. Botrytis spp., Penicillium spp., Phomopsis spp., Colletotrichum spp.) and 7 days (Cryptosporiopsis spp.), the severity of fungal rot was assessed for each treatment by measuring the lesion length (mm) along the axis of the fruit. […]"}, "[1]": {"system": "postharvest kiwifruit fruit pathogens", "experiment": "Assays 8 and 9 overall: wound protection of ‘Hongyang’ kiwifruit (discussion)", "type": "in vivo", "conditions": "wounded ‘Hongyang’ kiwifruit, treatment 24 hours before pathogen", "procedure": "as §1\nJust prior to wound treatment, each fruit was wounded on the side with a sterile stainless steel spike (4 mm deep×3 mm wide) and 10 μl of each treatment suspension was pipetted into the wound and allowed to dry.\nas §2, with “fruit. Data were expressed as the average lesion length, minus the initial width of the wound (3 mm).” for “fruit.”"}}, "data": [{"smiles": "CC(C)NC(=O)N1CC(=O)N(c2cc(Cl)cc(Cl)c2)C1=O", "note": "[iprodione]", "values": [{"measurement": "lesion size, comparison between treatments", "setting": "Penicillium spp.", "value": "significantly smaller than the untreated control"}, {"measurement": "overall performance as wound protectant", "setting": "[1]", "value": "performed poorly"}]}]}
